Test [1] addresses T1, αV-containing integrin heterodimers (Mus musculus, UniProt P43406).
T1 construct: endogenous in cells; host or cells: mouse primary myotubes differentiated from C57BL/6J satellite cells
T1 sequence (P43406 31-1044): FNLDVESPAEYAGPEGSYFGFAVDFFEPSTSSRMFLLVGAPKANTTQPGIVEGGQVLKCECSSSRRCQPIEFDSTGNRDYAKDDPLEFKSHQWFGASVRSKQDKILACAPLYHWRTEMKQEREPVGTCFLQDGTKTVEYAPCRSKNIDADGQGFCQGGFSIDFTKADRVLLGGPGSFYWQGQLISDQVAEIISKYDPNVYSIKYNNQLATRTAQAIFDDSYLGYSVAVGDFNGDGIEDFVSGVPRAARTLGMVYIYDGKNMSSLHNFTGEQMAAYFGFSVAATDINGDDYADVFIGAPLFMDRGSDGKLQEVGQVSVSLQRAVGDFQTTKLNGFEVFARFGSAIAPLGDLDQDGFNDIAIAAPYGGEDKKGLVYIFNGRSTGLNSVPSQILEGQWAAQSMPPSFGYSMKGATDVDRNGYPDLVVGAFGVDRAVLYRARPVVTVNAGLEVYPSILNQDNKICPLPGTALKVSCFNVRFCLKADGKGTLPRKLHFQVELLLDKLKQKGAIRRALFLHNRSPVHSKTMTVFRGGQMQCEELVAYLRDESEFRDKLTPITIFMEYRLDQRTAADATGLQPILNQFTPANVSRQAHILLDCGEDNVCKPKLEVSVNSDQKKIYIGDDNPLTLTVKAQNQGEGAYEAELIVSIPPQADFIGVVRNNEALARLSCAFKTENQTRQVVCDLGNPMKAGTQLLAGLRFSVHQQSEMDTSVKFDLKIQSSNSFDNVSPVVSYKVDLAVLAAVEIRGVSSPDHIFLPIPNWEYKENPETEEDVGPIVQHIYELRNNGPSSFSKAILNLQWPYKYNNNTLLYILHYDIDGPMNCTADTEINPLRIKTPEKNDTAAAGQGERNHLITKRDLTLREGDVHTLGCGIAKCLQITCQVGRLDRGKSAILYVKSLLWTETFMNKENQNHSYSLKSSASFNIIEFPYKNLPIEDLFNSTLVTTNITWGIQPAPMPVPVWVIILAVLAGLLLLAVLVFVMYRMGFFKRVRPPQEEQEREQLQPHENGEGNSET
As to the kind of experiment: Small molecule pan-αV integrin antagonist inhibition of transduction, mouse primary myotubes. Type of test: cell-based. Conditions: increasing concentrations of the antagonist; capsid named in the value. The protocol: (§1) Pan-alpha V integrin antagonists CWHM-12 and GLPG0187 (MedChem Express), or anti-αVβ6 antibody (ab77906, abcam) were diluted in DMEM containing 2% horse serum at the specified concentrations. Media was removed from differentiated myotubes and replaced with the diluted inhibitors, after which the myotubes were incubated on ice for 30 minutes to inhibit endocytosis. Following this incubation, AAV9-, MyoAAV-, or EMyoAAV-CK8-Nluc were added to the cells at 5E+3 vg/cell and the plates were transferred back to the tissue culture incubators. 24 hours after transduction, luciferase intensity was measured with the Nano-Glo Luciferase Assay (Promega).

The target of test [2] is T2, αV-containing integrin heterodimers (Homo sapiens, UniProt P06756).
T2 construct: endogenous in cells; host or cells: human primary skeletal muscle myotubes differentiated from Lonza myoblasts
T2 sequence (P06756 31-889 limits assumed): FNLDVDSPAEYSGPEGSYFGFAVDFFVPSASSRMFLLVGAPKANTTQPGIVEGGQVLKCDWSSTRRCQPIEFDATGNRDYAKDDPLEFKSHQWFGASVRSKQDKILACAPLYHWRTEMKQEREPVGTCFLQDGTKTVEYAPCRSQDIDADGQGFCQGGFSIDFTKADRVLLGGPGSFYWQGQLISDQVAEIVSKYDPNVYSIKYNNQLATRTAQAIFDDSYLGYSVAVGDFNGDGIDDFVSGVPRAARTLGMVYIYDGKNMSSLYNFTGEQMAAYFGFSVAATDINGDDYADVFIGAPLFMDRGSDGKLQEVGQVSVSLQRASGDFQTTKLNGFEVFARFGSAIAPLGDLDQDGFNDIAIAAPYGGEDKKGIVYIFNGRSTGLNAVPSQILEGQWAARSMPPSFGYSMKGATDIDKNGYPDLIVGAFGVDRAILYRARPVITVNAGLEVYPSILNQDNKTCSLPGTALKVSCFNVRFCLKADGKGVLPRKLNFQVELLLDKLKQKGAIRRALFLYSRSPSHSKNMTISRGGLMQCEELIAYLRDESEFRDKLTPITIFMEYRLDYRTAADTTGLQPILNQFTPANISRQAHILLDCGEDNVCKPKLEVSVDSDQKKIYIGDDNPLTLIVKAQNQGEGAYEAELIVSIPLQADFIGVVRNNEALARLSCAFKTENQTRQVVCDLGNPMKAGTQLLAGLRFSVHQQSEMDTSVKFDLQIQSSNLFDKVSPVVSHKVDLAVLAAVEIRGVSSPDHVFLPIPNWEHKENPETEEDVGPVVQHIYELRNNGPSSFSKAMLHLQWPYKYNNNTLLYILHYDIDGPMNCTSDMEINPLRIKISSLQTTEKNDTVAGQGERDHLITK
T2 sequence (P06756 891-1048 limits assumed): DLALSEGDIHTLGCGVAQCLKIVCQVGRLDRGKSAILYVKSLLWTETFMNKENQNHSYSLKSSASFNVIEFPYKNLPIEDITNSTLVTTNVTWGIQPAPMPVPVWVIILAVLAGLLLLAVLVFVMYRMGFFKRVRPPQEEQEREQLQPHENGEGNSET
Description: Small molecule pan-αV integrin antagonist inhibition of transduction, human primary myotubes. Type of test: cell-based. The following applies: increasing concentrations of the antagonist; capsid named in the value. Here is the method:
as §1

The structures appear in SMILES notation. Entries after “also recorded” stand apart in the source; their conditions may differ.

For `CC(C)(C)c1cc(Br)cc([C@H](CC(=O)O)NC(=O)CNC(=O)c2cc(O)cc(NC3=NCC(O)CN3)c2)c1` (stereo partly shown) [CWHM-12], in test [1], the “effect of the pan-αV integrin antagonist on AAV transduction efficiency, mouse primary myotubes” value is “impeded MyoAAV 1A transduction in a dose-dependent manner”. For the same compound, the “effect of the pan-αV integrin antagonist on AAV transduction efficiency, human primary myotubes” value in test [2] is on record as “impeded MyoAAV 1A transduction in a dose-dependent manner”.

`COc1ccc(S(=O)(=O)N[C@@H](CNc2nc(C)nc(N3CCC(c4ccc5c(n4)NCCC5)CC3)c2C)C(=O)O)cc1` [GLPG-0187]: the “effect of the pan-αV integrin antagonist on AAV transduction efficiency, mouse primary myotubes” value in test [1] is “impeded MyoAAV 1A transduction in a dose-dependent manner”. In addition, the “effect of the pan-αV integrin antagonist on AAV transduction efficiency, human primary myotubes” value in test [2] is given as “dose-dependent decrease in the transduction efficiency of EMyoAAV; also recorded: impeded MyoAAV 1A transduction in a dose-dependent manner; also recorded: dose-dependent decrease in the transduction efficiency of MyoAAV 2A; also recorded: dose-dependent decrease in transduction for all the 4 variants”.

For the origin of these results see patent US12618082B2, “Engineered muscle targeting compositions” (priority 2020, dated 2026).
